This is an account of results in ChEMBL document CHEMBL1134219, “Gamma-lactone-Functionalized antitumoral acetogenins are the most potent inhibitors of mitochondrial complex I” (Bioorg Med Chem Lett, 2001).

In experiment [1] the target is Mitochondrial complex I; NADH oxidoreductase (Bos taurus, UniProt P25708+P52505). Briefly: Inhibition of NADH oxidase activity in sub-mitochondrial particles from bovine heart. In kind it is functional.
Experiment [2] is filed under the species Bos taurus. Briefly: Inhibition of NADH-ubiquinone oxidoreductase using decylubiquinone (DB) acceptor. In kind it is functional.
The species entered for experiment [3] is Bos taurus. Briefly: Relative inhibition of NADH-ubiquinone oxidoreductase (DB) and NADH oxidase activity. Format: functional.
Experiment [4] is filed under the species Bos taurus. The experiment in a line: Relative NADH oxidase activity compared to Laherradurin and 36-dihydroisorolliniastatin-1. Format: functional.
Experiment [5] can be described thus: Potency relative to NADH oxidase activity of Laherradurin.
The nature of experiment [6]: Potency relative to NADH oxidase activity of and 36-dihydroisorolliniastatin-1.

The term IC50 denotes the concentration that gives 50% inhibition. Lower therefore signals greater potency in that assay.

Chain of Mitochondrial complex I; NADH oxidoreductase (P25708 21-464 limits assumed, other chains not shown): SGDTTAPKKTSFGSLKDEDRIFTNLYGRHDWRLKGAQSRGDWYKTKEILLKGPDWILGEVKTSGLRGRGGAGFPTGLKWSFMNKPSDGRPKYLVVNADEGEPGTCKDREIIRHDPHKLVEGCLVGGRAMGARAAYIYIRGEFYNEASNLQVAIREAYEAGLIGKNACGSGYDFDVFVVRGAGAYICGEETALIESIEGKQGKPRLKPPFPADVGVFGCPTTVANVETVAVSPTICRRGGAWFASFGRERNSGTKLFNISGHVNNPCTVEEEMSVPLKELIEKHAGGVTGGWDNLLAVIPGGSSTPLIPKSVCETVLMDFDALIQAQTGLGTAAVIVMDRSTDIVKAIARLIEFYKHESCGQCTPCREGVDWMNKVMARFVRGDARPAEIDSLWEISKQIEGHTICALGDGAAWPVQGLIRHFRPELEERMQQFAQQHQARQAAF

With `CCCCCCCCCC[C@H](O)[C@H]1CC[C@@H]([C@@H]2CC[C@H]([C@H](O)CCCCCCCCCC[C@H]3CC(C/C(C)=N/O)C(=O)O3)O2)O1` (stereo not given in full), the IC50 turned out to be 0.23 nM in experiment [1] and 0.22 nM in the experiment filed under Bos taurus [2]. For the same compound, the Ratio in the experiment listed under Bos taurus [3] came out at 1. In the experiment filed under Bos taurus [4], this compound registered a Relative potency of 1.3.
For `CCCCCCCCCC[C@@H](O)[C@@H]1CC[C@@H]([C@@H](O)CC[C@H](O)[C@@H]2CC[C@@H](CCCCCCC[C@@H](O)CC3C[C@H](C)OC3=O)O2)O1` (stereo not given in full), the half-maximal inhibitory concentration (IC50) in experiment [1] was found to be 1.22 nM; in the experiment listed under Bos taurus [2] it was 3.32 nM. The Ratio in the experiment filed under Bos taurus [3] came out at 2.7. This compound gave a Relative potency in the experiment filed under Bos taurus [4] of 6.8.
Turning to `CCCCCCCCCC[C@H](O)[C@H]1CC[C@@H]([C@@H]2CC[C@H]([C@H](O)CCCCCCCCCC[C@H]3CC(CC(C)O)C(=O)O3)O2)O1` (stereo not given in full), the IC50 in experiment [1] came to 0.18 nM; in the experiment listed under Bos taurus [2] it was 0.21 nM. Also, the Ratio in the experiment filed under Bos taurus [3] amounted to 1.2. Moreover, the Relative potency in experiment [5] amounted to 1.
`CCCCCCCCCC[C@@H](O)[C@@H]1CC[C@@H]([C@@H](O)CC[C@H](O)[C@@H]2CC[C@@H](CCCCCCC[C@H]3CC(CC(C)O)C(=O)O3)O2)O1` (stereo not given in full): the IC50 turned out to be 2.48 nM in experiment [1] and 4.64 nM in the experiment filed under Bos taurus [2]. In addition, the Ratio in the experiment filed under Bos taurus [3] was found to be 1.9. In the experiment filed under Bos taurus [4], this compound registered a Relative potency of 13.8.
On to `CCCCCCCCCC[C@@H](O)[C@@H]1CC[C@@H]([C@@H](O)CC[C@H](O)[C@@H]2CC[C@@H](CCCCCCC[C@H]3CC(C/C(C)=N/O)C(=O)O3)O2)O1` (stereo not given in full), for which the IC50 amounted to 0.54 nM in experiment [1] and 1.42 nM in the experiment listed under Bos taurus [2]. Further, the Ratio in the experiment filed under Bos taurus [3] came out at 2.6. The same compound registered a Relative potency in the experiment filed under Bos taurus [4] of 3.
On to `CCCCCCCCCC[C@@H](O)[C@@H]1CC[C@@H]([C@@H](O)CC[C@H](O)[C@@H]2CC[C@@H](CCCCCCC[C@@H](O)CC3(O)C(=O)O[C@H](C)[C@H]3O)O2)O1` (single isomer, unassigned), for which the IC50 in experiment [1] amounted to 8.47 nM; in the experiment filed under Bos taurus [2], 38.3 nM. In addition, the Ratio in the experiment listed under Bos taurus [3] was determined as 4.6. The same compound had a Relative potency in the experiment filed under Bos taurus [4] of 47.1.
In the case of `CCCCCCCCCC[C@H](O)[C@H]1CC[C@H]([C@H]2CC[C@H]([C@H](O)CCCCCCCCCCC3C(=O)O[C@@H](C)[C@@H]3O)O2)O1` (stereo not given in full), the IC50 in experiment [1] turned out to be 0.21 nM; in the experiment filed under Bos taurus [2], 0.72 nM. For the same compound, the Ratio in the experiment listed under Bos taurus [3] came to 3.4. Further, the Relative potency in the experiment listed under Bos taurus [4] was found to be 1.2.
The like results for `CCCCCCCCCC[C@H](O)[C@H]1CC[C@@H]([C@@H]2CC[C@H]([C@H](O)CCCCCCCCCC[C@H]3CC(CC(C)=O)C(=O)O3)O2)O1` (stereo not given in full) were, in that order, 0.33 nM, 1.21 nM, 3.7 and 1.8.
As to `CCCCCCCCCC[C@H](O)[C@H]1CC[C@H]([C@H]2CC[C@H]([C@H](O)CCCCCCCCCCCCC3C(=O)O[C@@H](C)[C@@H]3O)O2)O1` (stereo not given in full) [LAHERRADURIN], the values for the IC50 (in experiment [1]; in the experiment filed under Bos taurus [2]) were 0.18 nM and 0.29 nM, respectively. Also, in the experiment filed under Bos taurus [3], the Ratio came to 1.6. In addition, the Relative potency in experiment [6] came out at 1.
On to `CCCCCCCCCC[C@H](O)[C@H]1CC[C@@H]([C@@H]2CC[C@H]([C@H](O)CCCCCCCCCC[C@@H](O)CC3(O)C(=O)O[C@@H](C)[C@H]3O)O2)O1` (single isomer, unassigned), for which the IC50 in experiment [1] was found to be 0.21 nM; in the experiment filed under Bos taurus [2], 0.56 nM. Further, the Ratio in the experiment filed under Bos taurus [3] was found to be 2.7. The compound also registered a Relative potency in the experiment filed under Bos taurus [4] of 1.2.
Taken in the same sequence, the figures for `CCCCCCCCCC[C@@H](O)[C@@H]1CC[C@@H]([C@@H](O)CC[C@H](O)[C@@H]2CC[C@@H](CCCCCCC[C@H]3CC(CC(C)=O)C(=O)O3)O2)O1` (stereo not given in full) were 0.83 nM, 2.88 nM, 3.5 and 4.6.
For the compound `CCCCCCCCCC[C@H](O)[C@H]1CC[C@@H]([C@@H]2CC[C@H]([C@H](O)CCCCCCCCCC[C@@H](O)CC3=C[C@H](C)OC3=O)O2)O1` [rolliniastatin-1], it took 0.74 nM to reach half-maximal inhibition in the experiment listed under Bos taurus [2] (IC50). The Ratio in the experiment filed under Bos taurus [3] is given as 1.2. The same compound registered a Relative potency in the experiment filed under Bos taurus [4] of 3.3.
With `CCCCCCCCCC[C@@H](O)[C@@H]1CC[C@@H]([C@@H](O)CC[C@H](O)[C@@H]2CC[C@@H](CCCCCCC[C@@H](O)CC3=C[C@H](C)OC3=O)O2)O1`, the IC50 in experiment [1] is 1.84 nM; in the experiment filed under Bos taurus [2] it was 5.18 nM. The Ratio in the experiment listed under Bos taurus [3] turned out to be 2.8. The compound further showed a Relative potency in the experiment listed under Bos taurus [4] of 10.2.
On to `CCCCCCCCCC[C@H](O)[C@H]1CC[C@@H]([C@@H]2CC[C@H]([C@H](O)CCCCCCCCCC[C@@H](O)CC3C[C@H](C)OC3=O)O2)O1` (stereo not given in full), for which the IC50 in experiment [1] was determined as 0.43 nM; in the experiment filed under Bos taurus [2] it was 0.57 nM. The Ratio in the experiment listed under Bos taurus [3] is recorded as 1.3. In the experiment filed under Bos taurus [4], the Relative potency is 2.4.
